According to ChEMBL document CHEMBL1201862, “PubChem BioAssay data set” (2004):
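Where inhibition never reached the appropriate level, the endpoint shown equals the highest concentration tested. Otherwise, values were interpolated linearly from a five-concentration, 48-hour dose response in 96-well plates. GI50 marks 50% less growth.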 Calls of active or inactive are those of the source. No stated cut-off is given here; in the data, active = GI50 up to about 1.1 µM and inactive = higher.

Key:
Test in all cases: DTP human tumour cell line panel, 48 h
SK-OV-3 = tested on: SK-OV-3
COLO 205 = tested on: COLO 205
K562 = tested on: K562
SF-295 = tested on: SF-295
SK-MEL-28 = tested on: SK-MEL-28
HCC 2998 = tested on: HCC 2998
HCT-116 = tested on: HCT-116
NCI-H460 = tested on: NCI-H460
SW-620 = tested on: SW-620
A498 = tested on: A498
UACC-257 = tested on: UACC-257
MDA-MB-435 = tested on: MDA-MB-435
MOLT-4 = tested on: MOLT-4
SF-539 = tested on: SF-539
OVCAR-4 = tested on: OVCAR-4
HCT-15 = tested on: HCT-15
OVCAR-3 = tested on: OVCAR-3
CAKI-1 = tested on: CAKI-1
NCI-H522 = tested on: NCI-H522
MDA-MB-231 = tested on: MDA-MB-231

Row | Structure (SMILES) | GI50 (SK-OV-3) | GI50 (COLO 205) | GI50 (K562) | GI50 (SF-295) | GI50 (SK-MEL-28) | GI50 (HCC 2998) | GI50 (HCT-116) | GI50 (NCI-H460) | GI50 (SW-620) | GI50 (A498) | GI50 (UACC-257) | GI50 (MDA-MB-435) | GI50 (MOLT-4) | GI50 (SF-539) | GI50 (OVCAR-4) | GI50 (HCT-15) [µM] | GI50 (OVCAR-3) | GI50 (CAKI-1) | GI50 (NCI-H522) | GI50 (MDA-MB-231)
1 | CN1c2ccccc2C(=O)NC12CCN(CC1COc3ccccc3O1)CC2 (centres undefined) | > 100 µM (inactive) | 48.3 µM (inactive) | 31.3 µM (inactive) | 57.7 µM (inactive) | 55.3 µM (inactive) | > 100 µM (inactive) | 37.3 µM (inactive) | 21.3 µM (inactive) | 77.8 µM (inactive) | 20.3 µM (inactive) | 22 µM (inactive) | 33.4 µM (inactive) | 23.1 µM (inactive) | 36.4 µM (inactive) | 29.9 µM (inactive) |  |  |  |  | 
2 | COc1cc(/C=N\c2nc(-c3ccc(NS(=O)(=O)c4ccc(Cl)c(OC)c4)cc3)cs2)ccc1O | > 100 µM (inactive) | 30.1 µM (inactive) | 27.9 µM (inactive) | > 100 µM (inactive) | 33.2 µM (inactive) |  | 37.7 µM (inactive) |  | 41.1 µM (inactive) |  |  | 35.4 µM (inactive) | 16.4 µM (inactive) | 47.5 µM (inactive) | 35.2 µM (inactive) | > 100 | 69.5 µM (inactive) | > 100 µM (inactive) | 18.8 µM (inactive) | 
3 | CCCCCCCCCCCCCCCC(=O)OCC1OC(n2cc(F)c(=O)[nH]c2=O)C(NC(=O)N(CCCl)N=O)C(O)C1O (centres undefined) | 5.45 µM (inactive) | 4.41 µM (inactive) | 1.76 µM (inactive) | 0.156 µM (active) | 2.37 µM (inactive) | 2.71 µM (inactive) | 1.22 µM (inactive) | 0.152 µM (active) | 1.31 µM (inactive) | 4.44 µM (inactive) | 5.94 µM (inactive) |  | 1.21 µM (inactive) | 0.122 µM (active) | 7.96 µM (inactive) | 4.95 | 8.04 µM (inactive) | 4.78 µM (inactive) | 5.15 µM (inactive) | 
4 | O=c1[nH]cc(OCC(F)(F)F)c(=O)[nH]1 | > 100 µM (inactive) | > 100 µM (inactive) | > 100 µM (inactive) | > 100 µM (inactive) | > 100 µM (inactive) | > 100 µM (inactive) | > 100 µM (inactive) | > 100 µM (inactive) | > 100 µM (inactive) | > 100 µM (inactive) | > 100 µM (inactive) |  | > 100 µM (inactive) | > 100 µM (inactive) | > 100 µM (inactive) | > 100 | > 100 µM (inactive) | > 100 µM (inactive) | > 100 µM (inactive) | 
5 | O=C(NC12CC3CC(CC(C3)C1)C2)C(=O)c1c[nH]c2ccc([N+](=O)[O-])cc12 | 76.6 µM (inactive) | 24.5 µM (inactive) | 49 µM (inactive) | 6.18 µM (inactive) | 85.1 µM (inactive) | > 100 µM (inactive) | 18.7 µM (inactive) | 13.5 µM (inactive) | 31.7 µM (inactive) | 37.8 µM (inactive) | 85.5 µM (inactive) |  | > 100 µM (inactive) | 46.1 µM (inactive) | 7.59 µM (inactive) | > 78.9 | 24.8 µM (inactive) | 65.9 µM (inactive) | 25.2 µM (inactive) | 
6 | CN1C(=O)C(CCO)(C(C)(C)C)c2ccccc21 (centres undefined) | > 100 µM (inactive) | > 100 µM (inactive) | > 100 µM (inactive) | > 100 µM (inactive) | > 100 µM (inactive) | > 100 µM (inactive) | > 100 µM (inactive) | > 100 µM (inactive) | > 100 µM (inactive) |  | > 100 µM (inactive) | > 100 µM (inactive) | > 100 µM (inactive) |  | > 100 µM (inactive) | > 100 | > 100 µM (inactive) | > 100 µM (inactive) |  | > 100 µM (inactive)
7 | Cc1cc(-c2c(F)cc3c4nn([C@H]5CC[C@@H](N(C)C)CC5)c(=O)c-4cn(C4CC4)c3c2F)cc(C)n1 | 0.183 µM (active) | 0.208 µM (active) | 0.0297 µM (active) | 0.169 µM (active) | 0.687 µM (active) | 0.29 µM (active) | 0.16 µM (active) | < 0.0224 µM (active) | 0.195 µM (active) | 0.0229 µM (active) | 1.25 µM (inactive) |  | < 0.0316 µM (active) | 0.177 µM (active) | 3.36 µM (inactive) | 1.74 | 0.805 µM (active) | 0.0519 µM (active) | 0.169 µM (active) | 0.536 µM (active)
8 | O=C1C(NS(=O)(=O)c2ccccc2)=C(n2cnc3ccccc32)C(=O)c2ccccc21 | > 100 µM (inactive) | > 100 µM (inactive) | > 100 µM (inactive) | 57.4 µM (inactive) | > 100 µM (inactive) | > 100 µM (inactive) | > 100 µM (inactive) | > 100 µM (inactive) | > 100 µM (inactive) |  | > 100 µM (inactive) | > 100 µM (inactive) | > 100 µM (inactive) | > 100 µM (inactive) | 34.5 µM (inactive) | > 100 | > 100 µM (inactive) | > 100 µM (inactive) | 0.187 µM (active) | 48.9 µM (inactive)
9 | COc1c(C(=O)/C(=N/Nc2ccc(C(=O)O)cc2)C(C)=O)c(O)cc2occc12 | > 100 µM (inactive) | > 100 µM (inactive) | > 100 µM (inactive) | 82.8 µM (inactive) | > 100 µM (inactive) | > 100 µM (inactive) | > 100 µM (inactive) | 82 µM (inactive) | > 100 µM (inactive) |  | > 100 µM (inactive) | 46.7 µM (inactive) | > 100 µM (inactive) | > 100 µM (inactive) |  | 93.8 | > 100 µM (inactive) | > 100 µM (inactive) | 51.3 µM (inactive) | > 100 µM (inactive)
10 | CC(C)C12C=CC(C)(CC1)n1c(=O)c3cc4ccccc4cc3c(=O)n12 (centres undefined) | 52.1 µM (inactive) | 41.9 µM (inactive) | 34.4 µM (inactive) | 73.5 µM (inactive) | > 100 µM (inactive) | 33.7 µM (inactive) | 47.2 µM (inactive) | 45.5 µM (inactive) | 60.1 µM (inactive) | 22.5 µM (inactive) | 63.1 µM (inactive) |  | 30.8 µM (inactive) | 66.7 µM (inactive) | 43.9 µM (inactive) | 33.3 | 46.2 µM (inactive) | 87.9 µM (inactive) | 29.3 µM (inactive) | 
11 | COc1ccc(/N=N/C(=O)NC(CC(C)C)C(=O)NC(Cc2ccccc2)C(=O)O)cc1 (centres undefined) |  | 1.71 µM (inactive) | 0.287 µM (active) | 1.62 µM (inactive) | 4.85 µM (inactive) | 2.63 µM (inactive) | 32.4 µM (inactive) | 3.78 µM (inactive) | 7.73 µM (inactive) | > 100 µM (inactive) | 3.41 µM (inactive) | 0.705 µM (active) | 0.706 µM (active) | 0.31 µM (active) | 57.5 µM (inactive) | 0.378 | 16.5 µM (inactive) | > 100 µM (inactive) | 6.24 µM (inactive) | 
12 | CCCCC(C(=O)CCC(=O)Nc1ccc(Cl)c(Cl)c1)C(=O)C(C)C (centres undefined) | > 100 µM (inactive) | > 100 µM (inactive) | 40.9 µM (inactive) | 85.3 µM (inactive) | > 100 µM (inactive) | > 100 µM (inactive) | > 100 µM (inactive) | > 100 µM (inactive) | > 100 µM (inactive) | > 100 µM (inactive) | > 100 µM (inactive) |  | > 100 µM (inactive) | > 100 µM (inactive) | > 100 µM (inactive) | > 100 | > 100 µM (inactive) | > 100 µM (inactive) | > 100 µM (inactive) | 
13 | COc1ccc(/N=N/C(=O)NC(Cc2ccccc2)C(=O)O)cc1 (centres undefined) |  | > 100 µM (inactive) | > 100 µM (inactive) | > 100 µM (inactive) | > 100 µM (inactive) | > 100 µM (inactive) | > 100 µM (inactive) | > 100 µM (inactive) | > 100 µM (inactive) | > 100 µM (inactive) | > 100 µM (inactive) | > 100 µM (inactive) | > 100 µM (inactive) | > 100 µM (inactive) | > 100 µM (inactive) | > 100 | > 100 µM (inactive) | > 100 µM (inactive) | > 100 µM (inactive) | 
14 | CC[C@@H]1CSC(/C=C/C2OC3OC(C)(C)OC3C3OC(C)(C)OC23)=N1 (some centres undefined) | 35.8 µM (inactive) | 5.32 µM (inactive) | 3.91 µM (inactive) | 18.6 µM (inactive) | 11.9 µM (inactive) | 3.03 µM (inactive) | 3.5 µM (inactive) | 21.5 µM (inactive) | 3.22 µM (inactive) |  | 10.1 µM (inactive) | 4.15 µM (inactive) | 4.54 µM (inactive) | 4.84 µM (inactive) | 4.39 µM (inactive) | 3.75 | 4.97 µM (inactive) | 11.1 µM (inactive) | 3.18 µM (inactive) | 12.4 µM (inactive)
15 | COc1ccc(C2Oc3c(cc(O)c(OC)c3C)[C@@H]2C)cc1OC (some centres undefined) | > 100 µM (inactive) | > 100 µM (inactive) | 47.9 µM (inactive) | > 100 µM (inactive) | > 100 µM (inactive) | > 100 µM (inactive) | > 100 µM (inactive) | > 100 µM (inactive) | 71 µM (inactive) | > 100 µM (inactive) | 45 µM (inactive) |  | 76.2 µM (inactive) | > 100 µM (inactive) | 42.4 µM (inactive) | > 10 | > 100 µM (inactive) | 37.2 µM (inactive) | 34.4 µM (inactive) | 
16 | CC(=O)C1C(=O)C(=O)N(c2ccccc2)C1=O (centres undefined) | > 100 µM (inactive) | > 100 µM (inactive) |  | > 100 µM (inactive) | > 100 µM (inactive) | > 100 µM (inactive) | > 100 µM (inactive) | > 100 µM (inactive) | > 100 µM (inactive) |  | > 100 µM (inactive) | > 100 µM (inactive) | > 100 µM (inactive) | > 100 µM (inactive) | > 100 µM (inactive) | > 100 | > 100 µM (inactive) | > 100 µM (inactive) | > 100 µM (inactive) | > 100 µM (inactive)
